Assay results: patent US4761414A, “Substituted 1H-pyrimido[1,2-a-]-pyrido[3,4-e]pyrazine 6 oxides” (G. D. Searle & Co., priority 1986, dated 1988)
Values after ≈ are worked out from the molar mass of the structure shown.

Tests used:
B. fragilis NCTC 10581 = test: MIC/MBC against Bacteroides fragilis strain A (96-well microtitre plates, anaerobic chamber); type: cell-based; conditions: Bacteroides fragilis; for MBC: NCTC10581, 99.9% reduction in viable count; for MIC: NCTC10581, 48 h, 48 hours, 37° C., anaerobic
Experimental: (§1) The screening panel utilized in this Example consisted of 5 strains of Bacteroides fragilis. All assays were carried out in 96-well microtitre plates. If an isolate was obtained from either a culture collection or clinical source, the isolate was immediately inoculated into Wilkens-Chalgren broth (Oxoid) and incubated at 37° C. in an anaerobic chamber in an atmosphere of 85% nitrogen, 10% carbon dioxide, and 5% hydrogen for 48 hours. At the end of this time, the viable count was about 10^12 organisms/ml broth. A 1 ml aliquot of each culture was placed in an ampoule and quick frozen in acetone-dry ice mixture and stored in liquid nitrogen. When an inoculum was utilized in an assay, one of the ampoules was thawed and diluted with fresh broth to yield a suspension having a count of 5×10^5 organisms/ml. A 100 μl aliquot of this suspension was inoculated into each well of the microtitre plate. A 2 mg sample of the test compound was dissolved in 0.2 ml of a suitable solvent such as dimethylsulfoxide, polyethylene glycol 200 or methanol. […] After addition of the test solution the final inoculum level was 10^5 cells/ml. The plates were incubated for 48 hours at 37° C. in the anaerobic chamber. The Minimum Inhibitory Concentration (MIC) was read visually. The MIC is defined as the lowest concentration at which there is no detectable growth. The Minimum Bactericidal Concentration (MBC) was determined by taking 50 μl aliquot from each well and placing it in fresh medium. […] The strains of Bacteroides fragilis utilized in the above procedure are identified by letter in accordance with the following legend: |A B. fragilis NCTC 10581

B. fragilis NCTC 9343 = test: MIC/MBC against Bacteroides fragilis strain B; type: cell-based; conditions: for MBC: NCTC9343, 99.9% reduction in viable count; for MIC: NCTC9343, 48 h, 48 hours, 37° C., anaerobic
Experimental: as §1, with “|B” for “|A”, “9343” for “10581”

B. fragilis WS-1 = test: MIC/MBC against Bacteroides fragilis strain E; type: cell-based; conditions: for MBC: WS1, 99.9% reduction in viable count; for MIC: WS1, 48 h, 48 hours, 37° C., anaerobic
Experimental: as §1, with “|E” for “|A”, “WS-1*” for “NCTC 10581”

[1] = system: Costridium difficile NCIB 10666; test: MIC vs panel of anaerobes; type: cell-based, C. difficile; conditions: Clostridioides difficile, NCIB10666, C. difficile NCIB 10666; procedures of Example 40; read-out: MIC
[2] = system: Campylobacter fetus ss. jejuni NCTC 10842; test: MIC vs panel of anaerobes; type: cell-based; conditions: NCTC10842, procedures of Example 40
[3] = system: Fusobacterium necrophorum ATCC 11295; test: MIC vs panel of anaerobes; type: cell-based; conditions: Fusobacterium necrophorum, ATCC11295, Fusobacterium necrophorum ATCC 11295; procedures of Example 40; read-out: MIC

SMILES | MBC (B. fragilis NCTC 10581) | MIC (B. fragilis NCTC 10581) | MBC (B. fragilis NCTC 9343) | MIC (B. fragilis NCTC 9343) | MBC (B. fragilis WS-1) | MIC (B. fragilis WS-1) | MIC [1] | MIC [2] | MIC [3]
Cc1ccc(C2=[N+]([O-])c3cccnc3N3CC(C)(C)CN=C23)cc1 [Example 20, 2,3-Dihydro-2,2-dimethyl-5-(4-methylphenyl)-1H-pyrimido[1,2-a]pyrido[3,2-e]pyrazine 6-oxide] | < 0.8 µg/mL | < 0.8 µg/mL | 6.2 µg/mL (≈ 19.4 µM) | 6.2 µg/mL (≈ 19.4 µM) | < 0.8 µg/mL | 1.5 µg/mL (≈ 4.68 µM) | < 0.8 µg/mL | 6.2 µg/mL (≈ 19.4 µM) | 1.5 µg/mL (≈ 4.68 µM)
CC1(C)CN=C2C(c3ccccc3)=[N+]([O-])c3cccnc3N2C1 [Example 16, 2,3-Dihydro-2,2-dimethyl-5-phenyl-1H-pyrimido[1,2-a]pyrido[3,2-e]pyrazine 6-oxide] | 3.1 µg/mL (≈ 10.1 µM) | 3.1 µg/mL (≈ 10.1 µM) | 1.5 µg/mL (≈ 4.9 µM) | 1.5 µg/mL (≈ 4.9 µM) | 1.5 µg/mL (≈ 4.9 µM) | < 0.8 µg/mL | < 0.8 µg/mL | – | < 0.8 µg/mL
CCC1(CC)CN=C2C(c3ccccc3)=[N+]([O-])c3cccnc3N2C1 [Example 26, 2,3-Dihydro-2,2-diethyl-5-phenyl-1H-pyrimido[1,2-a]pyrido[3,2-e]pyrazine 6-oxide] | < 0.8 µg/mL | < 0.8 µg/mL | 1.5 µg/mL (≈ 4.49 µM) | 1.5 µg/mL (≈ 4.49 µM) | < 0.8 µg/mL | < 0.8 µg/mL | < 0.8 µg/mL | 25 µg/mL (≈ 74.8 µM) | 1.5 µg/mL (≈ 4.49 µM)
CCC1(CC)CN=C2C(c3ccccc3)=[N+]([O-])c3cnccc3N2C1 [Example 25, 2,3-Dihydro-2,2-diethyl-5-phenyl-1H-pyrimido[1,2-a]pyrido[3,4-e]pyrazine 6-oxide] | 3.1 µg/mL (≈ 9.27 µM) | 1.5 µg/mL (≈ 4.49 µM) | 1.5 µg/mL (≈ 4.49 µM) | 1.5 µg/mL (≈ 4.49 µM) | < 0.8 µg/mL | < 0.8 µg/mL | 1.5 µg/mL (≈ 4.49 µM) | 6.2 µg/mL (≈ 18.5 µM) | 31 µg/mL (≈ 92.7 µM)
[O-][N+]1=C(c2ccccc2)C2=NCC3(CCCCC3)CN2c2ncccc21 [Example 29, Spiro[cyclohexane-1,2'-[2,3]-dihydro-[5]-phenyl-[1H]pyrimido[1,2-a]pyrido[3,2-e]pyrazine [6]-oxide]] | – | – | < 0.8 µg/mL | < 0.8 µg/mL | < 0.8 µg/mL | < 0.8 µg/mL | < 0.8 µg/mL | 100 µg/mL (≈ 289 µM) | 6.2 µg/mL (≈ 17.9 µM)
COc1ccc(C2=[N+]([O-])c3cnccc3N3CC(C)(C)CN=C23)cc1OC [Example 21] | < 0.8 µg/mL | < 0.8 µg/mL | 1.5 µg/mL (≈ 4.09 µM) | 1.5 µg/mL (≈ 4.09 µM) | < 0.8 µg/mL | < 0.8 µg/mL | – | – | –
Cc1ccc(C2=[N+]([O-])c3cnccc3N3CC(C)(C)CN=C23)cc1 [Example 19, 2,3-Dihydro-2,2-dimethyl-5-(4-methylphenyl)-1H-pyrimido[1,2-a]pyrido[3,4-e]pyrazine 6-oxide] | 1.5 µg/mL (≈ 4.68 µM) | 1.5 µg/mL (≈ 4.68 µM) | 1.5 µg/mL (≈ 4.68 µM) | < 0.8 µg/mL | 1.5 µg/mL (≈ 4.68 µM) | 1.5 µg/mL (≈ 4.68 µM) | – | 6.2 µg/mL (≈ 19.4 µM) | < 0.8 µg/mL
CCCC1(C)CN=C2C(c3ccccc3)=[N+]([O-])c3cnccc3N2C1 (centres unmarked) [Example 27, 2,3-Dihydro-2-methyl-5-phenyl-2-propyl-1H-pyrimido[1,2-a]pyrido[3,4-e]pyrazine 6-oxide] | 1.5 µg/mL (≈ 4.49 µM) | 1.5 µg/mL (≈ 4.49 µM) | < 0.8 µg/mL | < 0.8 µg/mL | 3.1 µg/mL (≈ 9.27 µM) | 1.5 µg/mL (≈ 4.49 µM) | – | – | –
CC1(C)CN=C2C(c3ccccc3)=[N+]([O-])c3cnccc3N2C1 [Example 15, 2,3-Dihydro-2,2-dimethyl-5-phenyl-1H-pyrimido[1,2-a]pyrido[3,4-e]pyrazine 6-oxide] | < 0.8 µg/mL | < 0.8 µg/mL | < 0.8 µg/mL | < 0.8 µg/mL | 1.5 µg/mL (≈ 4.9 µM) | < 0.8 µg/mL | 1.5 µg/mL (≈ 4.9 µM) | – | < 0.8 µg/mL
[O-][N+]1=C(c2ccccc2)C2=NCC3(CCCCC3)CN2c2ccncc21 [Example 30, Spiro[cyclohexane-1,2'-[2,3]-dihydro-[5]-phenyl-[1H]pyrimido[1,2-a]pyrido[3,4-e]pyrazine [6]-oxide]] | < 0.8 µg/mL | < 0.8 µg/mL | 1.5 µg/mL (≈ 4.33 µM) | < 0.8 µg/mL | < 0.8 µg/mL | < 0.8 µg/mL | < 0.8 µg/mL | 100 µg/mL (≈ 289 µM) | 3.1 µg/mL (≈ 8.95 µM)
CC1(C)CN=C2C(c3ccc(Cl)cc3)=[N+]([O-])c3cccnc3N2C1 [Example 18, 2,3-Dihydro-5-(4-chlorophenyl)-2,2-dimethyl-1H-pyrimido[1,2-a]pyrido[3,2-e]pyrazine 6-oxide] | < 0.8 µg/mL | < 0.8 µg/mL | < 0.8 µg/mL | < 0.8 µg/mL | < 0.8 µg/mL | < 0.8 µg/mL | < 0.8 µg/mL | – | < 0.8 µg/mL
CC1CN=C2C(c3ccccc3)=[N+]([O-])c3cnccc3N2C1 (centres unmarked) [Example 34, 2,3-Dihydro-2-methyl-5-phenyl-1H-pyrimido[1,2-a]pyrido[3,4-e]pyrazine 6-oxide] | < 0.8 µg/mL | < 0.8 µg/mL | < 0.8 µg/mL | < 0.8 µg/mL | < 0.8 µg/mL | < 0.8 µg/mL | – | – | –
CC1CN=C2C(c3ccccc3)=[N+]([O-])c3cccnc3N2C1 (centres unmarked) [Example 32, 2,3-Dihydro-2-methyl-5-phenyl-1H-pyrimido[1,2-a]pyrido[3,2-e]pyrazine 6-oxide] | < 0.8 µg/mL | < 0.8 µg/mL | 1.5 µg/mL (≈ 5.13 µM) | 1.5 µg/mL (≈ 5.13 µM) | < 0.8 µg/mL | < 0.8 µg/mL | – | < 0.8 µg/mL | < 0.8 µg/mL
CCCC1(C)CN=C2C(c3ccccc3)=[N+]([O-])c3cccnc3N2C1 (centres unmarked) [Example 28, 2,3-Dihydro-2-methyl-5-phenyl-2-propyl-1H-pyrimido[1,2-a]pyrido[3,2-e]pyrazine 6-oxide] | < 0.8 µg/mL | < 0.8 µg/mL | < 0.8 µg/mL | < 0.8 µg/mL | 1.5 µg/mL (≈ 4.49 µM) | < 0.8 µg/mL | – | – | –
CC1(C)CN=C2C(c3ccc(F)cc3)=[N+]([O-])c3cnccc3N2C1 [Example 33, 2,3-Dihydro-2,2-dimethyl-5-(4-fluorophenyl)-1H-pyrimido[1,2-a]pyrido[3,4-e]pyrazine 6-oxide] | < 0.8 µg/mL | < 0.8 µg/mL | < 0.8 µg/mL | < 0.8 µg/mL | < 0.8 µg/mL | < 0.8 µg/mL | – | – | –
